Here are results for two substances from US11110167B2 (priority 2011, dated 2021).

The test system of the assay is human peripheral blood mononuclear cells (PBMC). Format: cell-based.

On to “polyinosinic:polycytidylic acid [Poly(I:C)]”, for which the “IL-1α and IL-1β mean gene expression upregulated” value came to 4.1 fold; the PPARg gene expression entry is “consistently downregulated”.
On the same counts, the results for lipopolysaccharide [LPS] are 4.4 fold and “consistently downregulated”.
